# Measurements as given in patent US10258610B2, “Pharmaceutical compositions comprising rifaximin, processes for their preparation and their use in the treatment of vaginal infections” (ALFASIGMA S.P.A., priority 2011, dated 2019).
# Key:
# [1] = tested on: vaginal microbiota; assay: Vaginal microbiota by PCR-DGGE (cluster analysis, Similarity Index, Richness Index); format: in vivo, human; design: key to Similarity Index V1-V3 / Similarity Index V1-V4 / Similarity Index V3-V4 / Similarity Index V1-V3-V4: % similarity between DGGE profiles (Pearson correlation)
# Procedure: During the clinical trial samples of vaginal rinses were taken, and the composition of vaginal microbiota was determined by means of the PCR-DGGE technique, allowing the identification of various bacterial DNA through an electrophoretic process and a DNA amplification with universal primers for the bacterial 16S rRNA region. The result of this technique was a sequence of visible bands, called clusters, wherein each of them is representative for the DNA of bacterial species present in the considered sample. The analysis of clusters of DGGE profiles of samples, carried out by using the FPQuest software (Bio-Rad) gives the information relating to the similarity of two samples. In the specific case wherein the recovery is intended as reduction of pathogenic species, it is positive that the sample of a patient after treatment is quite different from the sample of the same patient before treatment. The analysis was carried out with vaginal samples at the visits V1, V3 and V4 for the four groups A, B, C and D of treated patients. In order to evaluate the pharmacological action of the examined rifaximin preparations, different treatment groups were compared through the so called Similarity Indexes (SI). The analysis consists in evaluating the similarity of electrophoretic profiles calculated on the basis of the Pearson correlation coefficient. In the examined case, SI indicates the percent similarity between two or more DGGE profiles belonging to the same person at the different visits. Another adopted criterion of evaluation of the samples is the so called Richness Index (RI). This criterion, based on the bands of each DGGE profile, gives the measure of the complexity of the bacterial population, which is a sign of disease for the occurrence of new pathogenic species. Table 32 reports the RI average values, measured at the visits V1 and V3.
# [2] = tested on: Atopobium; assay: Vaginal microbiota by quantitative real-time PCR; format: in vivo; details: for Target DNA/genomic vaginal DNA, Atopobium / Target DNA/genomic or vaginal DNA, Atopobium: average; for Target DNA/genomic or vaginal DNA, Atopobium: visit V4, patients maintaining recovery
# Procedure: (§1) During the clinical trial, described in Example 12, samples of vaginal cleansing were collected and the composition of vaginal microbiota was determined by means of the quantitative real-time PCR.
# (§2) With the real-time PCR the DNA samples are amplified with gender- and/or species-specific primers whose target is the 16S rRNA bacterial gene or the 16S-23 S rRNA region.
# (§3) In particular, specific probes were used for the Lactobacillus gender, for Gardnerella vaginalis, for Atopobium, for Prevotella and for Veillonella, since they represent the main bacterial groups suffering from modifications in case of bacterial vaginosis.
# (§4) Table 28 reports the values of real-time PCR relating to bacterial genders and species quantified in vaginal cleansings of women belonging to the different treatment groups, expressed as total target DNA ng/genomic DNA μg, for microbial species tested for each group at the visit V3 if compared to the visit V1.
# (§5) The composition of vaginal microbiota was determined by means of the quantitative real-time PCR technique of patients maintaining their recovery at the visit V4, 30-40 days after the end of the therapy, and the DNA samples amplified with gender- and/or species-specific primers were evaluated by means of the real-time PCR technique.
# (§6) Table 29 reports the values of real-time PCR relating to target bacterial genders and species quantified in vaginal rinses of women belonging to the different treatment groups, expressed as total target DNA ng/genomic DNA μg, for microbial species tested for each group at the visit V4 when compared to the values observed at the visit V1 of all treated patients.
# [3] = tested on: Lactobacillus; assay: Vaginal microbiota by quantitative real-time PCR; format: in vivo; details: for Target DNA/genomic vaginal DNA, Lactobacillus / Target DNA/genomic or vaginal DNA, Lactobacillus: average; for Target DNA/genomic or vaginal DNA, Lactobacillus: visit V4, patients maintaining recovery; for increase of Lactobacilli concentration: visit V4
# Procedure: as §1, §2, §3, §4, §5, §6
# [4] = tested on: Veillonella; assay: Vaginal microbiota by quantitative real-time PCR; format: in vivo; details: average; for Target DNA/genomic or vaginal DNA, Veillonella: visit V4, patients maintaining recovery
# Procedure: as §1, §2, §3, §4, §5, §6
# [5] = tested on: Prevotella; assay: Vaginal microbiota by quantitative real-time PCR; format: in vivo; details: for Target DNA/genomic vaginal DNA, Prevotella / Target DNA/genomic or vaginal DNA, Prevotella: average; for Target DNA/genomic or vaginal DNA, Prevotella: visit V4, patients maintaining recovery
# Procedure: as §1, §2, §3, §4, §5, §6
# [6] = tested on: Gardnerella vaginalis; assay: Vaginal microbiota by quantitative real-time PCR; format: in vivo; details: for Target DNA/genomic vaginal DNA, Gardnerella vaginalis / Target DNA/genomic or vaginal DNA, Gardnerella vaginalis: average; for Target DNA/genomic or vaginal DNA, Gardnerella vaginalis: visit V4, patients maintaining recovery
# Procedure: as §1, §2, §3, §4, §5, §6
# [7] = Phase I systemic absorption of rifaximin vaginal tablets in healthy volunteers; format: in vivo, human; details: single 100 mg vaginal tablet, 30 minutes to 24 hours; LLOQ 0.5 ng/ml
# Procedure: The samples were analyzed by liquid chromatography equipped with mass spectrometry detector, with a lower limit of quantization (LLOQ) of rifaximin concentration 0.5 ng/ml.
# [8] = Group A: 1 tablet 100 mg × 5 days
# [9] = Group B: 1 tablet 25 mg × 5 days
# [10] = Group C: 1 tablet 100 mg × 2 days
# [11] = visit V1 (before therapy), Group A: 1 tablet 100 mg × 5 days
# [12] = visit V1 (before therapy), Group B: 1 tablet 25 mg × 5 days
# [13] = visit V1 (before therapy), Group C: 1 tablet 100 mg × 2 days
# [14] = visit V3, Group A: 1 tablet 100 mg × 5 days
# [15] = visit V3, Group B: 1 tablet 25 mg × 5 days
# [16] = visit V3, Group C: 1 tablet 100 mg × 2 days
# [17] = all groups treated with rifaximin, compared to placebo
compound,measurement,setting,value
CO[C@H]1/C=C/O[C@@]2(C)Oc3c(C)c(O)c4c(O)c(c5c(nc6cc(C)ccn65)c4c3C2=O)NC(=O)/C(C)=C\C=C\[C@H](C)[C@H](O)[C@@H](C)[C@@H](O)[C@@H](C)[C@H](OC(C)=O)[C@@H]1C [Rifaximin],"Percent of patients with clusterizing profiles, V1 vs. V3",[1]; [8],37%
same,"Percent of patients with clusterizing profiles, V1 vs. V3 vs. V4",[1]; [8],0%
same,Similarity Index V1-V3,[1]; [8],61.6
same,Similarity Index V1-V3-V4,[1]; [8],50.8
same,Similarity Index V1-V4,[1]; [8],52.1
same,Similarity Index V3-V4,[1]; [8],66.8
same,"Percent of patients with clusterizing profiles, V1 vs. V3",[1]; [9],24%
same,"Percent of patients with clusterizing profiles, V1 vs. V3 vs. V4",[1]; [9],0%
same,Similarity Index V1-V3,[1]; [9],48.4
same,Similarity Index V1-V3-V4,[1]; [9],36.4
same,Similarity Index V1-V4,[1]; [9],40.0
same,Similarity Index V3-V4,[1]; [9],62.1
same,"Percent of patients with clusterizing profiles, V1 vs. V3",[1]; [10],28%
same,"Percent of patients with clusterizing profiles, V1 vs. V3 vs. V4",[1]; [10],11%
same,Similarity Index V1-V3,[1]; [10],54.0
same,Similarity Index V1-V3-V4,[1]; [10],37.6
same,Similarity Index V1-V4,[1]; [10],47.1
same,Similarity Index V3-V4,[1]; [10],42.8
same,Richness Index,[1]; [11],13.5
same,Richness Index,[1]; [12],14.0
same,Richness Index,[1]; [13],15.4
same,Richness Index,[1]; [14],10.9
same,Richness Index,[1]; [15],10.7
same,Richness Index,[1]; [16],12.2
same,change of Atopopium concentration by real-time PCR,[2]; [17],reduction
same,"Target DNA/genomic vaginal DNA, Atopobium",[2]; [11],93.07 ng/µg
same,"Target DNA/genomic vaginal DNA, Atopobium",[2]; [12],108.2 ng/µg
same,"Target DNA/genomic vaginal DNA, Atopobium",[2]; [13],170.4 ng/µg
same,"Target DNA/genomic vaginal DNA, Atopobium",[2]; [14],61.46 ng/µg
same,"Target DNA/genomic vaginal DNA, Atopobium",[2]; [15],48.8 ng/µg
same,"Target DNA/genomic vaginal DNA, Atopobium",[2]; [16],59.99 ng/µg
same,"Target DNA/genomic or vaginal DNA, Atopobium",[2]; [8],5.348 ng/µg
same,"Target DNA/genomic or vaginal DNA, Atopobium",[2]; [9],28.25 ng/µg
same,"Target DNA/genomic or vaginal DNA, Atopobium",[2]; [10],139.9 ng/µg
same,change of Lactobacilli by real-time PCR,[3]; all groups treated with rifaximin,Lactobacilli increase
same,"Target DNA/genomic vaginal DNA, Lactobacillus",[3]; [11],16.83 ng/µg
same,"Target DNA/genomic vaginal DNA, Lactobacillus",[3]; [12],10.06 ng/µg
same,"Target DNA/genomic vaginal DNA, Lactobacillus",[3]; [13],12.66 ng/µg
same,"Target DNA/genomic vaginal DNA, Lactobacillus",[3]; [14],20.09 ng/µg
same,"Target DNA/genomic vaginal DNA, Lactobacillus",[3]; [15],33.78 ng/µg
same,"Target DNA/genomic vaginal DNA, Lactobacillus",[3]; [16],25.36 ng/µg
same,"Target DNA/genomic or vaginal DNA, Lactobacillus",[3]; [8],21.3 ng/µg
same,"Target DNA/genomic or vaginal DNA, Lactobacillus",[3]; [9],39.57 ng/µg
same,"Target DNA/genomic or vaginal DNA, Lactobacillus",[3]; [10],8.959 ng/µg
same,increase of Lactobacilli concentration,[3]; group A: tablet 100 mg rifaximin for five days,twentyfold
same,increase of Lactobacilli concentration,[3]; group B: tablet 25 mg rifaximin for five days,fortyfold
same,increase of Lactobacilli concentration,[3]; group C: tablet 100 mg rifaximin for two days,eightfold
same,"Target DNA/genomic vaginal DNA, Veillonella",[4]; [11],0.04128 ng/µg
same,"Target DNA/genomic vaginal DNA, Veillonella",[4]; [12],0.03492 ng/µg
same,"Target DNA/genomic vaginal DNA, Veillonella",[4]; [13],0.2214 ng/µg
same,"Target DNA/genomic vaginal DNA, Veillonella",[4]; [14],0.007807 ng/µg
same,"Target DNA/genomic vaginal DNA, Veillonella",[4]; [15],0.01761 ng/µg
same,"Target DNA/genomic vaginal DNA, Veillonella",[4]; [16],0.005642 ng/µg
same,"Target DNA/genomic or vaginal DNA, Veillonella",[4]; [8],0 ng/µg
same,"Target DNA/genomic or vaginal DNA, Veillonella",[4]; [9],0 ng/µg
same,"Target DNA/genomic or vaginal DNA, Veillonella",[4]; [10],0.2748 ng/µg
same,change of Prevotella concentration by real-time PCR,[5]; [17],reduction
same,"Target DNA/genomic vaginal DNA, Prevotella",[5]; [11],18.8 ng/µg
same,"Target DNA/genomic vaginal DNA, Prevotella",[5]; [12],18.47 ng/µg
same,"Target DNA/genomic vaginal DNA, Prevotella",[5]; [13],17.91 ng/µg
same,"Target DNA/genomic vaginal DNA, Prevotella",[5]; [14],12.2 ng/µg
same,"Target DNA/genomic vaginal DNA, Prevotella",[5]; [15],3.712 ng/µg
same,"Target DNA/genomic vaginal DNA, Prevotella",[5]; [16],7.248 ng/µg
same,"Target DNA/genomic or vaginal DNA, Prevotella",[5]; [8],0.04296 ng/µg
same,"Target DNA/genomic or vaginal DNA, Prevotella",[5]; [9],2.345 ng/µg
same,"Target DNA/genomic or vaginal DNA, Prevotella",[5]; [10],54 ng/µg
same,change of Gardnerella vaginalis concentration by real-time PCR,[6]; [17],reduction
same,"Target DNA/genomic vaginal DNA, Gardnerella vaginalis",[6]; [11],34.92 ng/µg
same,"Target DNA/genomic vaginal DNA, Gardnerella vaginalis",[6]; [12],119.4 ng/µg
same,"Target DNA/genomic vaginal DNA, Gardnerella vaginalis",[6]; [13],66.74 ng/µg
same,"Target DNA/genomic vaginal DNA, Gardnerella vaginalis",[6]; [14],23.56 ng/µg
same,"Target DNA/genomic vaginal DNA, Gardnerella vaginalis",[6]; [15],66.26 ng/µg
same,"Target DNA/genomic vaginal DNA, Gardnerella vaginalis",[6]; [16],29.44 ng/µg
same,"Target DNA/genomic or vaginal DNA, Gardnerella vaginalis",[6]; [8],3.067 ng/µg
same,"Target DNA/genomic or vaginal DNA, Gardnerella vaginalis",[6]; [9],17.57 ng/µg
same,"Target DNA/genomic or vaginal DNA, Gardnerella vaginalis",[6]; [10],75.09 ng/µg
same,rifaximin plasma concentrations,[7],under the analytical detection limit
